Assay results: patent publication US10829796B2, “Bacteria identification and antimicrobial susceptibility test” (priority 2015, dated 2020)

Test system: bacteria samples 4c, 4e, 5c, 5e, 6d
Assay: Antibiotic susceptibility testing (colour of media), plate configuration #3, reference colours at 0 hours for bacteria samples 4c, 4e, 5c, 5e, 6d
Assay type: cell-based
Details: T~0 h
[1] = Benzyl Penicillin or Cloxacillin 1 μg/ml
[2] = Benzyl Penicillin or Cloxacillin 10 μg/ml
[3] = Benzyl Penicillin or Cloxacillin 100 μg/ml
[4] = Benzyl Penicillin or Cloxacillin 1,000 μg/ml
[5] = Benzyl Penicillin or Cloxacillin 10,000 μg/ml

Cc1onc(-c2ccccc2Cl)c1C(=O)N[C@@H]1C(=O)N2[C@@H]1SC(C)(C)[C@@H]2C(=O)O [cloxacillin]
Colour of media in each well [1]: red
Colour of media in each well [2]: red
Colour of media in each well [3]: red
Colour of media in each well [4]: red
Colour of media in each well [5]: red

CC1(C)S[C@@H]2[C@H](NC(=O)Cc3ccccc3)C(=O)N2[C@H]1C(=O)O [benzyl penicillin]
Colour of media in each well [1]: Red
Colour of media in each well [2]: Red
Colour of media in each well [3]: Red
Colour of media in each well [4]: Red
Colour of media in each well [5]: Red

C[C@H]1[C@H](NC(=O)/C(=N\OC(C)(C)C(=O)O)c2csc(N)n2)C(=O)N1S(=O)(=O)O [aztreonam]
Colour of media in each well (Aztreonam 0.001 μg/ml): red
Colour of media in each well (Aztreonam 0.01 μg/ml): red
Colour of media in each well (Aztreonam 0.1 μg/ml): red
Colour of media in each well (Aztreonam 1 μg/ml): red
Colour of media in each well (Aztreonam 10 μg/ml): red
